According to patent US6605427B2, “Assay for detection of viral fusion inhibitors” (priority 2000, dated 2003):
Like-named read-outs stand apart in the source and are kept apart here.

Target: HIV-1 gp41 core structure (six-helix bundle) formation (Human immunodeficiency virus type 1 group M subtype B, UniProt P04578)
Method: Two days following transfection, intact 293T cells transiently expressing the HIV-1 HXB2 envelope are incubated in the presence of the test compound. At the end of 1 h, 2 μg of soluble CD4 (sCD4) or a cell line expressing CD4 is added. At the end of an additional 1 h, the monoclonal antibody against the six-helix bundle structure is added at a concentration of 10 μg/ml and the mixture is allowed to incubate at 25° C. for 3 hr. Following this incubation the cells are washed 4 times with PBS and lysed with 1 ml lysis buffer (1% Triton X-100, 150 mM NaCl, and 50 mM Tris-Cl pH 7.4). […] Immunoprecipitated complexes are analyzed by 10% SDS-Page gel, transferred to nitrocellulose and immunoblotted with the anti-gp41 monoclonal antibody Chessie 8 (obtained from NIH AIDS Research and Reference Reagent Program) and detected by chemiluminescence and autoradiography.
The ability of the test compound to disrupt these critical conformational changes is assessed by characterizing the formation of the gp41 core structure. […]
The assay is a modified form of an immunoprecipitation (IP) assay and involves incubating the test compound with intact, virus-infected cells expressing the gp120/gp41 envelope complex on their surface. […] In these experiments the ability of a test compound to disrupt gp41 conformational changes was measured by determining its effect of core structure formation.

C=C(C)[C@@H]1CC[C@]2(C(=O)O)CC[C@]3(C)[C@H](CC[C@@H]4[C@@]5(C)CC[C@H](OC(=O)CC(C)(C)C(=O)O)C(C)(C)[C@@H]5CC[C@]43C)[C@@H]12 [DSB, dimethylsuccinylbetulinic acid] was tested, and the “amount of gp41 immunoprecipitated following sCD4 triggering” value (100 μg/ml DSB (FIG. 8 lane 3)) was “further reduced to a level nearly identical to that recovered in the absence of CD4 triggering” and the “amount of gp41 immunoprecipitated following sCD4 triggering” value (10 Mg/ml DSB (FIG. 8 lane 2) versus no test compound (lane 1)) was “significantly greater than the amount of gp41 immunoprecipitated in the presence of 10 Mg/ml DSB”.
